Assay results taken from patent publication US11186577B2, “Vasopressin receptor antagonists and products and methods related thereto” (BlackThorn Therapeutics, Inc., priority 2017, dated 2021).
pIC50: −log10 of the molar value.

Assays:
[1] = molecular target: human Arginine Vasopressin Receptor 1a (AVPR1a) (Homo sapiens (Human), UniProt P37288); experiment: Vasopressin V1A receptor antagonist assay (AVP-evoked calcium, FLIPR, CHO-AVPR1a cells); type: cell-based; details: read-out: V1a IC50
In short: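 CHO cells expressing human AVPR1a, Calcium-6 dye loaded 60-90 min, preincubated with compound 15 min at 37° C., then challenged with AVP at its daily-determined EC80. FLIPR fluorescence; 10-point 1:3 series from 3 μM, duplicates.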

[2] = molecular target: human Arginine Vasopressin Receptor V2 (AVPR2) (Homo sapiens (Human), UniProt P30518); experiment: Vasopressin V2 receptor antagonist assay (cAMP TR-FRET, 1321N1 cells); type: cell-based
Sequence of human Arginine Vasopressin Receptor V2 (AVPR2) (P30518 whole entry): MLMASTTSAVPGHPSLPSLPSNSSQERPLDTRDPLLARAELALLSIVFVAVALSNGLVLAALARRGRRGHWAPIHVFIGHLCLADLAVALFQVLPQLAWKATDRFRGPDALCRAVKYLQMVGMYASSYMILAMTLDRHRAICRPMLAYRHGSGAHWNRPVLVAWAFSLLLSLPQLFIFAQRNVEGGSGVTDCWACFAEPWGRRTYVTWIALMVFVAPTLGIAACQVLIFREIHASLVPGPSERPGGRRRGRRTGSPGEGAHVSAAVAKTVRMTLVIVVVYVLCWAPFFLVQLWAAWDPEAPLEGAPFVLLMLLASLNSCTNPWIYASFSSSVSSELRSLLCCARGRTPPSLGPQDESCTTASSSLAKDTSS
Method: The purpose of the assay was to determine the inhibitory effect of synthesized compounds on the Vasopressin receptor 2. […] Arginine Vasopressin (AVP) evokes an increase in intracellular cAMP in these cells which is measured in a TR-FRET assay using a Europium cAMP tracer and ULight labelled antibody reagents contained in a LANCE Ultra cAMP kit (Perkin Elmer #TRF0263). […] Test compounds were assessed for their ability to affect the magnitude of the response to AVP, with antagonists showing a concentration-dependent decrease in the AVP-mediated reduction in TR-FRET signal.
cAMPZen V2 assay ready cells were thawed at 37° C. and resuspended directly from frozen in 9 ml growth medium consisting of DMEM supplemented with 10% v/v fetal bovine serum, 1× non-essential amino acids, and 1 mM sodium pyruvate. Cells were spun at 1000 rpm for 3 minutes and the supernatant was carefully removed and discarded. The pellet was resuspended in 5 ml stimulation buffer and the cell density determined using the Vi-Cell automated cell counter. The cell suspension was diluted to a 0.2×10^6/ml suspension ready for plating. […] Stimulation buffer consisted of HBSS (+Ca/+Mg) supplemented with 5 mM HEPES, 0.1% BSA stabiliser and 0.5 mM IBMX.
At the start of each assay day the potency of AVP was assessed and an EC80 concentration determined for subsequent compound profiling. Assays were performed by first an addition of 2.5 μl of control or test compound at 4× final concentration in stimulation buffer followed by 2.5 μl of AVP at 4× final concentration in stimulation buffer. After a 1 hour reaction, detection reagents were added by first an addition of 5 μl EU-cAMP tracer, followed by 5 μl ULight-anti-cAMP both diluted as per the manufacturer's instructions. […] For compound profiling, test compounds were dispensed by the Labcyte Echo (10-point curve, 1:3 dilutions) in a target 0.1 μl volume then diluted 750-fold in stimulation buffer containing 3% DMSO prior to addition to the cells. At the end of the incubation period, 2.5 μl of AVP in stimulation buffer was added at the previously determined EC80 concentration.

[3] = molecular target: human Oxytocin Receptor (hOTR) (Homo sapiens (Human), UniProt P30559); experiment: Oxytocin receptor antagonist assay (oxytocin-evoked calcium, FLIPR, CHEM-1-hOTR cells); type: cell-based; details: read-out: OT IC50
Sequence of human Oxytocin Receptor (hOTR) (P30559 whole entry): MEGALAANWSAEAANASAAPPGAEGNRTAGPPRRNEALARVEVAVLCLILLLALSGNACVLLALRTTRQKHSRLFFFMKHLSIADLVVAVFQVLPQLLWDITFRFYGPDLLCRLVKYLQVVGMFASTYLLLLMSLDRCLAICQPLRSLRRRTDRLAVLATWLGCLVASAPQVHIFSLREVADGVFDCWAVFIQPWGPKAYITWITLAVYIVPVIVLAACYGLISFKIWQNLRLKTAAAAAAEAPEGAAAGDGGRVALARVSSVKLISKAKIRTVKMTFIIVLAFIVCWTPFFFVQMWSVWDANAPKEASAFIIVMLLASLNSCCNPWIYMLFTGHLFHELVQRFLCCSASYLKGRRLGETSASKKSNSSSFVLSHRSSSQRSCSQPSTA
In short: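 Antagonist mode in CHEM-1-hOTR cells loaded with Calcium-6 dye; compounds (10-point, 1:3 series) preincubated 15 min at 37 °C, then oxytocin added at daily-determined EC80 in HBSS/20 mM HEPES with 0.1% BSA. Fluorescence (ex 470-495, em 515-575 nm) followed 3 min on FLIPR^TETRA; concentration-dependent reduction of oxytocin response measured.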

MDR1 (P-gp) = experiment: in vitro; details: dog, MDCK-MDR1

Sequence of human Arginine Vasopressin Receptor 1a (AVPR1a) (P37288 whole entry): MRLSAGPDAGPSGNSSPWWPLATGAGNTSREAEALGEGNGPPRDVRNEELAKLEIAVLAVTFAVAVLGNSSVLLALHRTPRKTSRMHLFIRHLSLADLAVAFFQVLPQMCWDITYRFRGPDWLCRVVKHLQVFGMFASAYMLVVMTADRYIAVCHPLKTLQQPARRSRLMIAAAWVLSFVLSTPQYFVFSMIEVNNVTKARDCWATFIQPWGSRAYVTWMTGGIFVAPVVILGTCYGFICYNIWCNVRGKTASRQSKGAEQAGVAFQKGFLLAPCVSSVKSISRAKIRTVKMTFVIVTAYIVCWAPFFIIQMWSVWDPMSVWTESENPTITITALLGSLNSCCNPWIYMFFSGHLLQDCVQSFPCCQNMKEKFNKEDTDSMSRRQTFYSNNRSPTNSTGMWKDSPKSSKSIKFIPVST

`CC1(N2Cc3cc(Cl)ccc3-n3c(nnc3C3CC4(C3)CN(c3ccc(F)cn3)C4)C2)CC1` [Compound No. 255, 8-chloro-1-(2-(5-fluoropyridin-2-yl)-2-azaspiro[3.3]heptan-6-yl)-5-(1-methylcyclopropyl)-5,6-dihydro-4H-benzo[f][1,2,4]triazolo[4,3-a][1,4]diazepine] was tested, and the pIC50 [1] was greater than 7.00, the pIC50 [2] was 6.30 to 7.00 and the pIC50 [3] was less than 6.00. The Papp A→B at 2 h (MDR1 (P-gp)) was greater than 200 nm/s.
Work on `Fc1ccc(N2CC3(CC(c4nnc5n4-c4ccc(Cl)cc4CN(C4CC4)C5)C3)C2)nc1` [compound 223] yielded a pIC50 [1] greater than 7.00, a pIC50 [2] greater than 7.00 and a pIC50 [3] of less than 6.00. It also gave a Papp A→B at 2 h (MDR1 (P-gp)) greater than 200 nm/s.
